Test results published in patent US20080008745A1, “Transdermal delivery of naltrexone hydrochloride, naltrexol hydrochloride, and bis(hydroxy-methyl)propionyl-3-0 ester naltrexone using microneedles” (UNIVERSITY OF KENTUCKY RESEARCH FOUNDATION, priority 2006, published 2008).
In brackets after ≈: the same amount, converted by molar mass. Where a name gives a salt, the structure may show the parent alone. Read-outs that look alike come from different tables or passages of the source.

Assays:
[1] = Solubility or concentration of Naltrexol base in 3:1 H2O:PG after pH adjustment; assay type: physicochemical; details: for Solubility in 3:1 H2O:PG: pH adjusted; for Concentration in 3:1 H2O:PG: concentration of drug in solution, freely soluble in the ionized form
Description: 100 mg of Naltrexol base was prepared in 3:1 H2O:PG. The solution was briefly vortexed and sonicated for 10 min. To obtain a mixture of pH 8.5 Naltrexol base, 0.5 N sodium hydroxide was added incrementally. The same procedure was performed to obtain a pH 4.5 solution, except 0.5 M HCl was added dropwise. […] The solution was saturated with excess solid when the pH was raised above the first pKa (7.4) of Naltrexol base.

[2] = In vitro skin diffusion study, flow-through diffusion cell, guinea pig skin
Description: Hairless guinea pig skin was harvested from euthanitized animals. Animal studies were approved by the University of Kentucky IACUC. Human skin harvested during abdominoplasty was used for the diffusion studies. Human tissue use was approved by the University of Kentucky Institutional Review Board. Skin sections were obtained by removing the subcutaneous fatty tissue by scalpel dissection and stored at −20° C. A PermeGear flow-through (In-Line, Riegelsville, Pa.) diffusion cell system was used for the skin permeation studies. Skin used for microneedle treatment was placed on a wafer of polydimethylsiloxane polymer, which mimicked the underlying resistance of tissue. The skin was poked 20 times with an array containing 5 MN before mounting the skin in the diffusion cell. Untreated skin samples were simply placed in the diffusion cells. Diffusion cells were kept at 32° C. with a circulating water bath. Data was collected by using skin from a single donor with three cells for untreated formulations and three to four cells for the MN treated formulations. The receiver solution was HEPES-buffered Hanks' balanced salts with gentamicin at pH 7.4, and the flow rate was adjusted to 1.1 mL/h. Each cell was charged with 0.25 mL of the respective drug solution. […] All samples were stored at 4° C. until processed by solid phase extraction.
The cumulative quantity of drug collected in the receiver compartment was plotted as a function of time. The flux value for a given experiment was obtained from the slope of the steady state portion of the cumulative amount of drug permeated, plotted over time. Apparent permeability coefficient values were calculated from Fick's First Law of diffusion: [formula]
Sink conditions were maintained in the receiver solution for the duration of the experiment, so ΔC was approximated by the drug concentration in the donor compartment.
The HPLC analysis was performed as described by Vaddi et al., Pharm. Res. 22 (2005) 758-765. The HPLC system consisted of a Waters 717plus autosampler, a Waters 1525 Binary HPLC pump, and a Waters 2487 Dual λ Absorbance detector with Waters Breeze software. A Brownlee C-18 reversed-phase Spheri-5 μm column (220×4.6 mm) with a C-18 reversed phase 7 μm guard column (15×3.2 mm) was used with the UV detector set at a wavelength of 215 nm. […] The mobile phase for Naltrexol consisted of 90:10 ACN:0.1% TFA adjusted to pH 3.0 with TEA. Samples were run for 10 min at 1 mL/min as described by Paudel et al., J. Pharm. Sci. 94 (2005) 1965-1975). One hundred microliters of sample was injected onto the column for both Naltrexone and Naltrexol. Samples were analyzed within the linear range of the standard curves.
The drugs were extracted from the buffer samples by solid phase extraction (30mg 1 cc Oasis® HLB, Waters Corp., Milford, Mass.) as described by Vaddi et al., Pharm. Res. 22 (2005) 758-765.
Before extracting the aqueous drug samples (5 mL), the cartridge was conditioned with 1 mL of methanol and 1 mL of nanopure water. After sample loading, the cartridge was washed with 1 mL of 5% methanol and the drug was eluted with ACN and analyzed by HPLC. A similar extraction method was employed for Naltrexol, except 2 mL of methanol was used in conditioning and 1 mL of nanopure water was also used to further wash the samples after being loaded onto the cartridge. The Naltrexol was eluted with 2 mL of isopropanol and finally with 1 mL ACN. Naltrexol samples were evaporated under nitrogen in a water bath maintained at 37° C. The samples were then reconstituted with 1 mL of ACN for HPLC analysis. Highly concentrated samples of Naltrexone and Naltrexol were further diluted 10 times in ACN.
The data obtained from the diffusion experiments were plotted as the cumulative amount of drug collected in the receiver compartment as a function of time.

[3] = In vivo pharmacokinetics in hairless guinea pigs, gel with or without microneedles; set-up: species or system hairless guinea pig
Description: In vivo studies of hairless guinea pigs were performed in order to obtain pharmacokinetic parameters for guinea pigs treated with 26 mg Naltrexol base gel, MN application followed by 26 mg Naltrexol base gel, 285 mg Naltrexol HCl gel and MN application followed by 285 mg Naltrexol HCl. The base was saturated in gel whereas the hydrochloride salt remained soluble in solution.

[4] = Solubility in 3:1 PG:Hanks' buffer; assay type: physicochemical; details: for Solubility in 3:1 PG:Hanks Buffer: 32° C., 24 h
Description: An excess of Naltrexone HCl (˜350 mg) was added to 1 mL of 3:1 PG:Hanks' buffer. The saturated solution was then vortexed for 1 min, sonicated for 15 min, and placed in an incubator at 32° C. for 24 h while shaking on a belly shaker. Just before filtering, a glass syringe and 0.45 μm filter were heated in an incubator to 32° C. The solution was filtered and diluted with ACN for high pressure liquid chromatography (HPLC) analysis.

[5] = In vitro skin diffusion study, flow-through diffusion cell, human skin; assay type: in vitro ADME; details: for Lag time / NTX Flux: Human skin; for Papp at 48 h: human
[6] = cited from earlier work
[7] = human skin, passive diffusion without MN (Paudel et al.); cited from earlier work
[8] = GP skin, No MN, High Dose, 3:1 H2O:PG
[9] = MN application followed by gel (26 mg base or 285 mg HCl)
[10] = no MN, gel (26 mg Naltrexol base or 285 mg Naltrexol HCl)
[11] = GP skin, MN Treated, High Dose, listed as Naltrexol pH 4.5
[12] = No MN GP skin, listed as Naltrexone base
[13] = MN Treated GP skin, 100 mg/ml Naltrexone base equivalent in 3:1 PG:water, 48 hours

Oc1ccc2c3c1O[C@H]1[C@H](O)CC[C@@]4(O)[C@@H](C2)N(CC2CC2)CC[C@]314 [NTXOL Base pH 8.5, 6-β-Naltrexol]
Solubility in 3:1 H2O:PG [1]: 2.69 mM (≈ 924 µg/mL) | Solubility in 3:1 H2O:PG ([1]; listed as Naltrexol base at pH 8.5): 2.92 mM (≈ 1000 µg/mL) | Lag time ([2]; GP skin, MN Treated, High Dose): 17.53 ± 6.56 h | NTXOL Flux ([2]; GP skin, MN Treated, High Dose): 4.79 ± 2.62 nmol/cm^2/h | Lag time ([2]; GP skin, MN Treated, Low Dose): 15.67 ± 6.96 h | NTXOL Flux ([2]; GP skin, MN Treated, Low Dose): 15.19 ± 7.33 nmol/cm^2/h | Lag time ([2]; GP skin, No MN, High Dose): 24.34 ± 5.17 h | NTXOL Flux [2, 8]: 1.36 ± 0.91 nmol/cm^2/h | Lag time ([2]; GP skin, No MN, High Dose, listed as Naltrexol pH 8.5): 24.34 ± 5.17 h | Lag time ([2]; GP skin, No MN, Low Dose): 25.37 ± 1.10 h | NTXOL Flux ([2]; GP skin, No MN, Low Dose): 8.77 ± 4.08 nmol/cm^2/h

Cl.Oc1ccc2c3c1O[C@H]1[C@H](O)CC[C@@]4(O)[C@@H](C2)N(CC2CC2)CC[C@]314 [NTXOL HCl, Naltrexol Hydrochloride]
Plasma concentrations compared to no microneedles and Naltrexol base ([3]; MN and gel therapy, FIG. 8): markedly higher | AUC [3, 9]: 1349 ± 616 ng·h/mL | Cmax [3, 9]: 48.5 ± 18.8 ng/mL | Css [3, 9]: 21.3 ± 6.9 ng/mL | Tlag [3, 9]: 0.7 ± 0.3 h | Tmax [3, 9]: 19.2 ± 11.5 h | AUC [3, 10]: 24.4 ng·h/mL | Cmax [3, 10]: 4.1 ng/mL | Css [3, 10]: 1.8 ± 1.68 ng/mL | Tlag [3, 10]: 1 h | Tmax [3, 10]: 7.0 h | Flux ([2]; MN treated skin, earlier experiment): 36.12±1.77 nmol/cm^2/h | Flux ([2]; untreated skin, earlier experiment): 2.75±1.38 nmol/cm^2/h

Oc1ccc2c3c1O[C@H]1[C@H](O)CC[C@@]4(O)[C@@H](C2)N(CC2CC2)CC[C@]314 [NTXOL Base pH 4.5, 6-β-Naltrexol]
Concentration in 3:1 H2O:PG ([1]; High Dose): **292.40 mM | Concentration in 3:1 H2O:PG ([1]; Low Dose): **76.02 mM | Lag time ([2]; GP skin, MN Treated, High Dose): 6.58 ± 5.02 h | NTXOL Flux ([2]; GP skin, MN Treated, High Dose): 35.07 ± 8.18 nmol/cm^2/h | Lag time [2, 11]: 6.58 ± 5.02 h | NTXOL Flux [2, 11]: 35.07±8.18 nmol/cm^2/h | Lag time ([2]; GP skin, MN Treated, Low Dose): 10.33 ± 7.95 h | NTXOL Flux ([2]; GP skin, MN Treated, Low Dose): 71.98 ± 26.38 nmol/cm^2/h | Lag time ([2]; GP skin, No MN, High Dose): 25.97 ± 5.50 h | NTXOL Flux [2, 8]: 6.56 ± 6.49 nmol/cm^2/h | Lag time ([2]; GP skin, No MN, High Dose, listed as Naltrexol pH 4.5): 25.97 ± 5.50 h | Lag time ([2]; GP skin, No MN, Low Dose): 27.18 ± 1.31 h | NTXOL Flux ([2]; GP skin, No MN, Low Dose): 11.50 ± 4.20 nmol/cm^2/h | Flux enhancement relative to Naltrexone HCl ([2]; MN treated GP skin): 1.3 fold

O=C1CC[C@@]2(O)[C@H]3Cc4ccc(O)c5c4[C@@]2(CCN3CC2CC2)[C@H]1O5 [NTX-HCl, Naltrexone Hydrochloride]
Solubility in 3:1 PG:Hanks Buffer ([4]; Hydrochloride): 794.4 mM | Flux enhancement by MN treatment ([2]; GP skin, MN vs untreated): 10 fold | NTX Flux ([2]; MN GP skin, 3:1 PG:Hanks' buffer, Hydrochloride): 27.16 ± 4.57 nmol/cm^2/h | NTX Flux ([2]; MN GP skin, 3:1 PG:Hanks' buffer, listed as Naltrexone HCl, Hydrochloride): 27.16±4.57 nmol/cm^2/h | Lag time ([2]; MN GP skin, Hydrochloride): 2.41 ± 3.85 h | Lag time ([2]; MN GP skin, listed as Naltrexone HCl, Hydrochloride): 2.41 ± 3.85 h | Lag time ([2]; No MN GP skin, Hydrochloride): 22.38 ± 7.68 h | NTX Flux ([2]; No MN GP skin, Hydrochloride): 2.71 ± 1.20 nmol/cm^2/h | Lag time ([2]; No MN GP skin, listed as Naltrexone HCl, Hydrochloride): 22.38 ± 7.68 h | Maximum daily dose (calculated from Eq. 2) ([5]; 10 cm^2 patch, MN-treated human skin, highest concentration measured): 5.0 mg | Lag time ([5]; MN): 12.06 ± 4.32 h | NTX Flux ([5]; MN): 18.54 ± 4.38 nmol/cm^2/h | Lag time ([5]; No MN): 23.66 ± 2.74 h | NTX Flux ([5]; No MN): 2.22 ± 0.72 nmol/cm^2/h | Flux enhancement by MN treatment ([5]; human skin, MN vs untreated, p<0.05): 8 fold | Papp at 48 h ([5]; pH 7.4, Human skin, MN, read-out: Permeability (converted)): 0.0194 ×10⁻⁶ cm/s | Papp at 48 h ([5]; pH 7.4, Human skin, No MN, read-out: Permeability (converted)): 0.00233 ×10⁻⁶ cm/s | Permeability Kp (estimated) ([5]; microneedle-treated human skin): 0.0194 ×10⁻⁶ cm/s

Oc1ccc2c3c1O[C@H]1[C@H](O)CC[C@@]4(O)[C@@H](C2)N(CC2CC2)CC[C@]314 [NTXOL Base, 6-β-Naltrexol]
AUC [3, 9]: 303.1 ng·h/mL | Cmax [3, 9]: 8.5 ng/mL | Css [3, 9]: 5.04 ± 2.57 ng/mL | Tlag [3, 9]: 0.7 h | Tmax [3, 9]: 0.7 h | AUC [3, 10]: 50.5 ± 10.1 ng·h/mL | Cmax [3, 10]: 1.7 ± 0.5 ng/mL | Css [3, 10]: 0.95 ± 0.41 ng/mL | Tlag [3, 10]: 5.2 ± 1.6 h | Tmax [3, 10]: 40.1 ± 11.7 h | first pKa [6]: 7.4

O=C1CC[C@@]2(O)[C@H]3Cc4ccc(O)c5c4[C@@]2(CCN3CC2CC2)[C@H]1O5 [NTX Base, Naltrexone]
solubility at 24 h ([4]; 3:1 PG:Hanks' buffer, 32 °C, aqueous with cosolvent or surfactant or cyclodextrin, thermodynamic from solid, Eq. 2, read-out: Solubility S used for theoretical dosing): 300 mg/mL (≈ 879 mM) | Solubility in 3:1 PG:Hanks Buffer ([4]; listed as Naltrexone base): 43.6 mM (≈ 14900 µg/mL) | Permeability [7]: 0.03 ×10⁻⁶ cm/s | Lag time ([2]; MN GP skin): 18.91 ± 4.49 h | NTX Flux ([2]; MN GP skin, 3:1 PG:Hanks' buffer): 11.80 ± 5.02 nmol/cm^2/h | NTX Flux ([2]; MN GP skin, 3:1 PG:Hanks' buffer, listed as Naltrexone base): 11.80±5.02 nmol/cm^2/h | Lag time ([2]; MN GP skin, listed as Naltrexone base): 18.91 ± 4.49 h | Lag time ([2]; No MN GP skin): 21.22 ± 3.91 h | NTX Flux ([2]; No MN GP skin): 9.94 ± 2.75 nmol/cm^2/h | Lag time [2, 12]: 21.22 ± 3.91 h | NTX Flux [2, 12]: 9.94±2.75 nmol/cm^2/h | Maximum daily dose ([5]; 10 cm^2 patch, passive diffusion without MN, at solubility limit): 0.4 mg | Papp at 48 h ([5]; pH 7.4, microneedle-treated human skin, read-out: Permeability Kp (estimated) (converted)): 0.0194 ×10⁻⁶ cm/s

CC(CO)(CO)C(=O)Oc1ccc2c3c1OC1C(=O)CCC4(O)C(C2)N(CC2CC2)CCC314 (centres unmarked) [NTX-Diol ester, bis(hydroxymethyl)propionyl-3-O-ester naltrexone]
Flux [2, 13]: 71.98 ± 26.38 nmol/cm^2/h | Lag time [2, 13]: 10.33 ± 7.95 h | Flux level relative to Naltrexone HCl with MN treatment ([2]; MN treated GP skin): approximately twice
